Laboratory results published in patent US12558337B2, “Formulations comprising melflufen” (ON[…], priority 2019, dated 2026).
Where “and” joins values, the source holds several entries; their conditions need not be identical. Equal entries are not always repeated.

How the values were obtained:
Assay type in all cases: physicochemical
[1] = Stability of isolated melflufen freebase oil; conditions: colorless oil; room temperature; several days
Experimental: The hydrochloride salt of melflufen may be prepared as disclosed in WO 01/96367, which is incorporated herein by reference. Ethanesulfonate, maleate and p-toluenesulfonate salts of melflufen were prepared by treating the melflufen freebase with 1 equivalent of the respective acid in dichloromethane or ethyl acetate. If required, heptane was added to initiate salt precipitation. All salts were isolated as white solids in a 1:1 ratio of melflufen and counterion, and dried under high vacuum. Melflufen freebase was prepared from melflufen hydrochloride using NaHCO3 and dichloromethane (DCM). Melflufen hydrochloride was suspended in 100 mL of dichloromethane before an ice-cold solution of NaHCO3(aq) was added. The mixture was shaken for 30 seconds and the phases were allowed to settle. The organic phase was collected and dried over MgSO4 before the solvent was removed in vacuo at 0° C. Melflufen freebase was isolated as a colorless oil. No degradation of melflufen was observed by HPLC analysis and the oil was stable at room temperature for several days.

[2] = Stability study of formulation containing melflufen (OPD-5) and propylene glycol at −20° C. and −70° C.; conditions: in propylene glycol
Experimental: 536.25 mg of melflufen (OPD-5) was weighed into a […] volumetric flask. The flask was then filled with propylene glycol (W294004-1 Kg-K, Lot no: MKCD8681, Sigma-Aldrich). The resulting mixture was vortexed for 3 minutes. The mixture was then stirred for 15 minutes at 28° C. with occasional vortexing to furnish a clear solution having a melflufen concentration of approximately 20 mg/mL (excluding the mass of the counterion). The solution was aliquoted into 1 mL vials and stored at −70° C. or at −20° C.
The concentration and purity (% relative peak area) of melflufen in the propylene glycol formulation was analysed at time 0 (T0b) and then every 1 month by RP-HPLC. For each time point, two replicated were analysed (i.e. two separate vials of the formulation). At each time point the vials were visually checked for any color change or precipitation.
RP-HPLC analysis was performed using an Agilent 1100 series Liquid Chromatography, and an XBridge® C18 (2.1×100 mm, 3.5 μm) column. The method used a 5-95% B gradient over 6 min and a flow of 0.8 mL/min (mobile phase A: 0.1% formic acid in water; mobile phase B: 0.1% formic acid in acetonitrile), a column temperature of 55° C., a sampler temperature of 25° C., and UV detection at 262 nm. Samples were then diluted to 200 μg/mL concentration in DMA before injection into RP-HPLC. An injection volume of 5 μL was used.

[3] = Stability study of formulation containing melflufen (OPD-5) and propylene glycol at 2-8° C., 25° C. and 40° C. (RP-HPLC, visual appearance); conditions: in propylene glycol; for change in melflufen concentration on storage: up to 168 days
Experimental: (§1) Vials (2R type 1 glass vials, Gerresheimer, #35601558) were washed with purified water (≤0.2 μmS/cm, <10 ppb Total Organic Carbon (TOC)). Afterwards, the vials were dried and heat-treated at 300° C. for 2 hours. Rubber stoppers were autoclaved at 121° C. and 2 bar for 15 min.
(§2) The formulation was prepared by dissolving melflufen (OPD-5) at a concentration of approximately 20 mg/mL (excluding the mass of the counterion) in propylene glycol (1,2-Propanediol, EMPROVE® exp Ph Eur, BP, USP, Merck Chemicals, #K49954578). 1 mL of the melflufen solution was added into each vial. The filled vials were then closed with a rubber stopper and crimp capped. The 1 mL samples were analysed at T0 (i.e. before storage) and after storage for approximately 4 weeks (T1), 8 weeks (T2), 12 weeks (T3), and 24 weeks (T4) at 2-8° C., 25° C. or 40° C.
RP-HPLC analysis was performed using an Agilent 1100 series Liquid Chromatography, and an)(Bridge® Shield (RP18, 3.5 μm, 4.6×150 mm) column. The method used a 0-80% B gradient over 20 min and a flow of 1.0 mL/min (mobile phase A: 10 mM ammonium acetate pH 5.0/acetonitrile 86/14 v/v; mobile phase B: acetonitrile), a column temperature of 20° C., a sampler temperature of 5° C., and UV detection at 262 nm. The pharmaceutical formulations were diluted to a melflufen concentration of 0.8 mg/mL using an ethanol/acetonitrile diluent (3:7 v/v) prior to RP-HPLC analysis.

[4] = Solubility of melflufen (OPD-5) in PEG 300; conditions: approximately 20 mg/mL prepared
Experimental: (§3) The formulation was prepared by dissolving melflufen (OPD-5) at a concentration of approximately 20 mg/mL (excluding the mass of the counterion) in polyethylene glycol (polyethylene glycol 300, Emprove exp., Ph. Eur, Merck Chemicals, #K47544702). 1 mL of the melflufen solution was added into each vial. The filled vials were then closed with a rubber stopper and crimp capped. The 1 mL samples were analysed at T0 (i.e. before storage) and after storage for approximately 4 weeks (T1a), 8 weeks (T2a), 12 weeks (T3a), and 24 weeks (T4a) at 2-8° C., 25° C. or 40° C.

[5] = Solubility of melflufen (OPD-5) in propylene glycol; conditions: approximately 20 mg/mL prepared
Experimental: as §2

[6] = Stability study of formulation containing melflufen (OPD-5) and PEG 300 at 2-8° C., 25° C. and 40° C. (RP-HPLC, visual appearance); conditions: in PEG 300; for change in melflufen concentration on storage: up to 164 days
Experimental: as §1, §3
RP-HPLC analysis was performed using an Agilent 1100 series Liquid Chromatography, and an XBridge® Shield (RP18, 3.5 μm, 4.6×150 mm) column. The method used a 0-80% B gradient over 20 min and a flow of 1.0 mL/min (mobile phase A: 10 mM ammonium acetate pH 5.0/acetonitrile 86/14 v/v; mobile phase B: acetonitrile), a column temperature of 20° C., a sampler temperature of 5° C., and UV detection at 262 nm. The pharmaceutical formulations were diluted to a melflufen concentration of 0.8 mg/mL using an ethanol/acetonitrile diluent (3:7 v/v) prior to RP-HPLC analysis.

[7] = 2-8° C., T1 (31 days), hydrochloride
[8] = 2-8° C., T4 (168 days), hydrochloride
[9] = 25° C., T1 (31 days), hydrochloride
[10] = 25° C., T3 (98 days), hydrochloride
[11] = 25° C., T4 (168 days), hydrochloride
[12] = 40° C. (accelerated storage condition), over time
[13] = 2-8° C., T1a (26 days), hydrochloride
[14] = 2-8° C., T2a (54 days), hydrochloride
[15] = 2-8° C., T3a (94 days), hydrochloride
[16] = 25° C., T1a (26 days), hydrochloride
[17] = 25° C., T2a (54 days), hydrochloride
[18] = 25° C., T3a (94 days), hydrochloride
[19] = 25° C., T4a (164 days), hydrochloride

SMILES: CCOC(=O)[C@H](Cc1ccc(F)cc1)NC(=O)[C@@H](N)Cc1ccc(N(CCCl)CCCl)cc1 [Melflufen freebase, L-Melphalanyl-4-fluoro-L-phenylalanine ethyl ester]
- stability of the oil [1]: stable

SMILES: Cl.[2H]C([2H])([2H])C([2H])([2H])OC(=O)[C@H](Cc1ccc(F)cc1)NC(=O)[C@@H](N)Cc1ccc(N(CCCl)CCCl)cc1 [OPD-5, (^2H5)ethyl (2S)-2-[(2S)-2-amino-3-{4-[bis(2-chloroethyl)amino]phenyl}propanamido]-3-(4-fluorophenyl)propanoate hydrochloride]
- time for which the formulation was stable ([2]; −20° C.): at least 6 months
- change in melflufen (OPD-5) concentration ([2]; −20° C., 6 month test period): no notable change
- melflufen purity retained (relative to the melflufen purity before storage of the formulation) ([2]; −20° C., 6 months): greater than 99.5%
- colour change or precipitation (visual check) ([2]; −70° C. and −20° C., 6-8 month test period): No colour change or precipitation
- change in melflufen (OPD-5) concentration ([2]; −70° C., 8 month test period): no notable change
- melflufen purity retained (relative to the melflufen purity before storage of the formulation) ([2]; −70° C., 8 months): greater than 99.5%
- Concentration of melfufen (ODP-5) [3, 7]: 20100 µg/mL and 20200 µg/mL
- Purity of melfufen (ODP-5) [3, 7]: 99.1 % relative peak area and 99.3 % relative peak area
- Purity of melfufen (ODP-5) ([3]; 2-8° C., T2 (59 days)): 99.2 % relative peak area
- Concentration of melfufen (ODP-5) ([3]; 2-8° C., T2 (59 days), hydrochloride): 19800 µg/mL and 20300 µg/mL
- Concentration of melfufen (ODP-5) ([3]; 2-8° C., T3 (98 days)): 20500 µg/mL
- Purity of melfufen (ODP-5) ([3]; 2-8° C., T3 (98 days), hydrochloride): 99.0 % relative peak area and 98.5 % relative peak area
- Concentration of melfufen (ODP-5) [3, 8]: 18400 µg/mL and 18300 µg/mL
- Purity of melfufen (ODP-5) [3, 8]: 95.4 % relative peak area and 95.8 % relative peak area
- visual appearance ([3]; 2-8° C., at each time point (T1, T2, T3 and T4)): no visible colouration
- change in melflufen concentration on storage ([3]; 2-8° C.): no significant change
- Concentration of melfufen (ODP-5) [3, 9]: 15700 µg/mL and 15800 µg/mL
- Purity of melfufen (ODP-5) [3, 9]: 89.0 % relative peak area and 89.3 % relative peak area
- Purity of melfufen (ODP-5) ([3]; 25° C., T2 (59 days)): 81.3 % relative peak area
- Concentration of melfufen (ODP-5) ([3]; 25° C., T2 (59 days), hydrochloride): 14100 µg/mL and 12200 µg/mL
- Concentration of melfufen (ODP-5) [3, 10]: 8800 µg/mL and 8400 µg/mL
- Purity of melfufen (ODP-5) [3, 10]: 68.1 % relative peak area and 66.6 % relative peak area
- Concentration of melfufen (ODP-5) [3, 11]: 5100 µg/mL and 4900 µg/mL
- Purity of melfufen (ODP-5) [3, 11]: 49.9 % relative peak area and 48.7 % relative peak area
- visual appearance ([3]; 25° C., over time (T1 to T4)): yellow to brown colouration that increased in intensity over time
- change in melflufen concentration on storage ([3]; 25° C.): decrease over time
- visual appearance [3, 12]: yellow to brown colouration that increased in intensity over time
- melflufen purity retained (relative to the melflufen purity before storage of the formulation) ([3]; about 5° C. (2 to 8° C.), over 50 days): greater than 95%
- solubility in PEG 300 [4]: readily soluble
- solubility in propylene glycol [5]: readily soluble
- visual appearance ([6]; 2-8° C., 26 days (T1a)): slight yellow colouration
- visual appearance ([6]; 2-8° C., 54 days (T2a), 94 days (T3a) and 164 days (T4a)): small increase in the intensity of the yellow colouration
- Concentration of melfufen (ODP-5) [6, 13]: 19900 µg/mL and 19800 µg/mL
- Purity of melfufen (ODP-5) [6, 13]: 96.7 % relative peak area and 96.9 % relative peak area
- Concentration of melfufen (ODP-5) [6, 14]: 19900 µg/mL and 19300 µg/mL
- Purity of melfufen (ODP-5) [6, 14]: 95.2 % relative peak area and 95.5 % relative peak area
- Concentration of melfufen (ODP-5) [6, 15]: 18700 µg/mL and 18900 µg/mL
- Purity of melfufen (ODP-5) [6, 15]: 92.7 % relative peak area and 92.6 % relative peak area
- Concentration of melfufen (ODP-5) ([6]; 2-8° C., T4a (164 days)): 18700 µg/mL
- Purity of melfufen (ODP-5) ([6]; 2-8° C., T4a (164 days), hydrochloride): 91.4 % relative peak area and 91.3 % relative peak area
- change in melflufen concentration on storage ([6]; 2-8° C.): no significant change
- Concentration of melfufen (ODP-5) [6, 16]: 18100 µg/mL and 17900 µg/mL
- Purity of melfufen (ODP-5) [6, 16]: 89.3 % relative peak area and 89.6 % relative peak area
- Concentration of melfufen (ODP-5) [6, 17]: 14400 µg/mL and 15300 µg/mL
- Purity of melfufen (ODP-5) [6, 17]: 83.8 % relative peak area and 85.1 % relative peak area
- Concentration of melfufen (ODP-5) [6, 18]: 11200 µg/mL and 11300 µg/mL
- Purity of melfufen (ODP-5) [6, 18]: 74.2 % relative peak area and 74.7 % relative peak area
- Concentration of melfufen (ODP-5) [6, 19]: 9800 µg/mL and 9500 µg/mL
- Purity of melfufen (ODP-5) [6, 19]: 70 % relative peak area and 68.1 % relative peak area
- visual appearance ([6]; 25° C., over time (T1a to T4a)): yellow to brown colouration that increased in intensity over time
- change in melflufen concentration on storage ([6]; 25° C.): decrease over time
- visual appearance [6, 12]: yellow to brown colouration that increased in intensity over time
